{"source": "patent US20210283082A1", "about": "“PHARMACEUTICAL COMPOSITION FOR PREVENTION OR TREATMENT OF KIDNEY DAMAGE” (National University Corporation Kanazawa University, priority 2018, published 2021)", "key": {"[1]": {"tested_on": "mice treated by renal ischemia reperfusion", "test": "Renal ischemia reperfusion, F4/80 immunostaining of kidney tissue (macrophages)", "assay_type": "in vivo", "conditions": "day 5 after ischemia reperfusion; 20 mM D-serine water vs water", "description": "The animals were reared with free access to water and feed under conditions with an SPF environment and 12-hour light-dark cycling. C57BL/6J mice were purchased from Clea Japan, Inc. (Osaka). Male 12- to 16-week-old mice were treated by renal ischemia reperfusion (hereunder also referred to as “I/R”). The renal pedicles were clamped with a non-traumatic clip (Natsume Seisakusho, Tokyo) under pentobarbital anesthesia to elicit ischemia. The clips were released after 40 minutes. The body temperature was kept at 37° C. during treatment. The mice were reared with free access to water (control) or 20 mM D-serine-containing water, prior to 14 days after IR treatment. On day 0, 2, 5, 7 and 10 after IR treatment, the kidney tissues were sampled. Renal samples harvested on day 0 and day 5 were fixed with 10% neutral buffered formalin and supplied for immunostaining using F4/80 antibody (Invitrogen, catalog #: MF48,000). F4/80 is a protein expressed specifically by macrophages, and it allows visualization of macrophages in kidney tissue. In the water-administered control group, cells stained with F4/80 were found accumulated in kidney tissue (day 5), but in the D-serine-administered group such cellular accumulation was minimal (FIG. 3(A)). The regions stained with F4/80 in the kidney tissue harvested on day […] were measured and shown (FIG. 3(B))."}, "[2]": {"test": "Blood D-serine concentration after free provision of 20 mM D-serine water", "assay_type": "in vivo", "conditions": "mice reared with free access to 20 mM D-serine-containing water", "description": "The animals were reared with free access to water and feed under conditions with an SPF environment and 12-hour light-dark cycling. C57BL/6J mice were purchased from Clea Japan, Inc. (Osaka).\nThe mice were reared in an environment allowing free access to water (control) or 20 mM D-serine-containing water, and the blood D-serine concentrations were measured. The blood D-serine concentrations were determined by total amino acid optical isomer analysis using a D, L-amino acid simultaneous high sensitivity analysis system developed by Zaitsu et al. (Japanese Patent No. 4291628). The details regarding the analysis conditions for each amino acid are described in Miyoshi Y. et al., J. Chromatogr. B, 879:3184(2011) and Sasabe, J. et al., Proc. Natl. Acad. Sci. U.S.A., 109:627(2012). In brief, serum and urine amino acids were fluorescently derivatized with NBD-F (4-fluoro-7-nitro-2,1,3-benzooxadiazole, Tokyo Kasei Kogyo Co., Ltd.) and supplied to an HPLC system (NANOSPACE SI-2 Series, product of Shiseido Corp.). NBD-amino acids separated two-dimensionally using an in-house reversed-phase column with an octadecyl group as the stationary phase and a chiral column with an amino acid derivative as the stationary phase, were quantitatively analyzed after detection at an excitation wavelength of 470 nm and a detection wavelength of 530 nm. […]"}, "rats": {"tested_on": "rats", "conditions": "intraperitoneal, 800 mg/kg (NPL 3), 400 mg/kg (NPL 4) or 250 mg/kg (NPLs 5 and 6); cited from earlier work"}, "[3]": {"tested_on": "mice treated by renal ischemia reperfusion", "test": "Renal ischemia reperfusion, PAS staining and ATN score of kidney tissue sections", "assay_type": "in vivo", "description": "The animals were reared with free access to water and feed under conditions with an SPF environment and 12-hour light-dark cycling. C57BL/6J mice were purchased from Clea Japan, Inc. (Osaka). Male 12- to 16-week-old mice were treated by renal ischemia reperfusion (hereunder also referred to as “I/R”). The renal pedicles were clamped with a non-traumatic clip (Natsume Seisakusho, Tokyo) under pentobarbital anesthesia to elicit ischemia. The clips were released after 40 minutes. The body temperature was kept at 37° C. during treatment. The mice were reared with free access to water (control) or 20 mM D-serine-containing water, prior to 14 days after IR treatment. On day 0, 2, 5, 7 and 10 after IR treatment, the kidney tissues were sampled. Kidneys sampled on day 0, 2 and 10 were fixed with 10% neutral buffered formalin and embedded in paraffin, and then stained with periodic acid-Schiff (PAS staining). The stained slices were photographed with a bright-field microscope (FIG. 1). Debris stained with PAS (skin boundary) or brush border (skin boundary and cortical region) were quantitatively evaluated in at least 10 different locations. Renal tubule necrosis (A), intraluminal debris (B) and brush border region (C) were evaluated by ATN score (0: none, 1: mild, 2: moderate, 3: severe), with the results shown in FIGS. 2(A) to (C). Sample evaluation was carried out blind."}}, "note": "Entries after “also recorded” stand apart in the source; their conditions may differ."}
{"smiles": "N[C@H](CO)C(=O)O", "note": "[D-serine]", "values": [{"measurement": "F4/80 staining of kidney tissue (accumulation of macrophages and monocytes)", "setting": "[1]", "result": "little change in staining intensity; also recorded: minimal"}, {"measurement": "blood D-serine concentration", "setting": "[2]", "result": 100, "unit": "nmol/mL"}, {"measurement": "nephrotoxicity", "setting": "rats", "result": "causes nephrotoxicity"}, {"measurement": "grades of necrosis, intraluminal debris and brush border region (ATN score)", "setting": "[3]; 0, 2, 5, 7 and 10 days after ischemia reperfusion, compared to the group given water", "result": "improved"}, {"measurement": "PAS staining intensity of kidney tissue section (accumulation of inflammatory cells such as neutrophils and eosinophils)", "setting": "[3]; day 10 after ischemia reperfusion, 20 mM D-serine water vs water", "result": "no such change in staining intensity"}, {"measurement": "protecting effect on the kidneys", "setting": "[3]; mice, drinking water containing 20 mM D-serine, blood concentration 100 nmol/mL", "result": "able to exhibit a protecting effect on the kidneys"}]}
